Source: paper PMC11984268 (BMC Cancer, 2025)
Read-outs that look alike come from different tables or passages of the source.

How the values were obtained:
[1] = patients with advanced solid cancers; cited from earlier work
pSTAT3^Y705 = experiment: pSTAT3 Y705 in paired tumour biopsies, Western blotting; type: in vivo, human; conditions: one patient with paired biopsy, dose expansion, C1D15
Procedure: (§1) All patients in the dose escalation phase consented to a fresh frozen punch skin biopsy during screening and on C1/D15 (± 7 days). Fresh frozen skin and tumour biopsies during screening and on C1/D15 (± 7 days) were also required for the first 13 patients in the dose expansion phase. PD markers of MEK1/2 inhibition (pMEK1/2; pERK1/2) in skin biopsies and MET inhibition (pSTAT3) in tumour biopsy were assessed by Western blotting (WB), as previously described. Densitometry on WB images was performed using ImageJ software.

pMET^Y1003 = experiment: pMET Y1003 in paired tumour biopsies, Western blotting; type: in vivo, human; conditions: one patient with paired biopsy, dose expansion, C1D15
[2] = Plasma pharmacokinetics by HPLC-MS/MS; type: in vivo, human; conditions: for concentration at 24 h: read-out: Cmin 24h
Procedure: Plasma samples were collected pre-dose and 1, 2, 4, 6, 8, 10 and 24 h after the dose on C1/D21. PK trough samples (pre-dose; 2 h post-dose) were obtained on day 21 of cycles 2, 4, 6, 8, 10 and 12.

[3] = remark: listed apart in the source
Procedure: A rolling-six design was employed.
Safety assessments, ophthalmic/cardiac examinations were performed as previously described. […] Anti-tumour activity was conducted at baseline (within 28 days prior to C1/day 1 (D1)) and then every 2 cycles and evaluated by RECIST v1.1.
Safety and efficacy data were summarised using descriptive statistics. Evaluable patients for toxicity were those patients that received at least one dose of one or both drugs. Evaluable patients for MTD or dose escalation were those patients who completed C1 or withdrew early for experiencing a DLT. Response analyses (RECIST v1.1) were performed on an intention-to-treat basis, and any patient who received any dose of study treatment was evaluable for response. PFS was defined as the time between receiving the first dose of study medication to disease progression or death from any cause. OS was defined as the time between C1D1 to death from any cause. PFS and OS were estimated using the Kaplan–Meier method. Statistical significance was calculated from distinct technical replicates by Student’s t-test (2-tailed, 2 sample equal variance on unpaired data), in GraphPad Prism 8. Graphs were plotted as means with error bars represented as SD; statistical significance was denoted as follows: *** = p < 0.001, ** = p < 0.01, * = p < 0.05, ns = p > 0.05.

cMET = conditions: cited from earlier work
pMEK1/2 = pMEK1/2 in paired skin biopsies, Western blotting/densitometry; type: in vivo, human; conditions: dose escalation, cohort 7, 12 and 13, C1D15
Procedure: as §1

[4] = in vivo; cited from earlier work
[5] = Cycle 1, Day 21, Cohort 7: binimetinib 30mg B.D 28d, crizotinib 200mg B.D, n = 7
[6] = Cycle 1, Day 21, Cohort 12: binimetinib 30mg B.D 21d, crizotinib 200mg B.D, n = 5
[7] = Cycle 1, Day 21, Cohort 13: binimetinib 30mg B.D 21d, crizotinib 250mg O.D, n = 6
[8] = Cycle 1, Day 21, Dose expansion phase: binimetinib 30mg B.D 21d, crizotinib 250mg O.D, n = 26
[9] = human, plasma, dose escalation phase, 3 cohorts, oral, read-out: time of peak plasma concentrations after dosing

## C[C@@H](Oc1cc(-c2cnn(C3CCNCC3)c2)cnc1N)c1c(Cl)ccc(F)c1Cl [crizotinib]
[1]
  maximum-tolerated dose (MTD) of crizotinib with PD- 0325901: 200 mg B.D
pSTAT3^Y705
  pSTAT3 Y705 levels in tumour during treatment: decreases
pMET^Y1003
  pMET Y1003 levels in tumour during treatment: increased
[2]; [5]
  AUC0-10h: 2481 (980) ng*h/ml (SD)
  Cmin: 205 (78.0) ng/ml (SD)
[2]; [6]
  AUC0-10h: 2119 (1341) ng*h/ml (SD)
  Cmin: 181 (136) ng/ml (SD)
[2]; [7]
  AUC0-10h: 1467 (410) ng*h/ml (SD)
  AUC0-24h: 2529 (380) ng*h/ml (SD)
  Cmin: 114 (43.1) ng/ml (SD)
[2]; [8]
  AUC0-10h: 1647 (907) ng*h/ml (SD)
  AUC0-24h: 3479 (2083) ng*h/ml (SD)
  Cmin: 149 (85.3) ng/ml (SD)
[2]; cohort 13, crizotinib 250 mg O.D
  median trough plasma concentrations: > 62 ng/mL
[2]; human, plasma, oral, Cycle 1, Day 21, Cohort 13: binimetinib 30mg B.D 21d, crizotinib 250mg O.D, n = 6
  concentration at 24 h: 72.6 ng/mL
[2]; human, plasma, oral, Cycle 1, Day 21, Dose expansion phase: binimetinib 30mg B.D 21d, crizotinib 250mg O.D, n = 26
  concentration at 24 h: 109 ng/mL
[2]; [9]
  Tmax: 0.97 to 6 h
continuously, with binimetinib 30 mg B.D days 1–21 every 28 days
  MTD (crizotinib dose in the combination): 250 mg O.D
[3]; dose escalation phase, of 210 DR-AE
  DR-AE determined to be related to the drug: 164
[3]; dose expansion phase, of 297 DR-AE
  DR-AE determined to be related to the drug: 244
cMET
  pre-clinically predicted effective concentration to inhibit cMET: 62 ng/mL

## O=C(NOCCO)c1cc2[nH]cnc2c(F)c1Nc1ccc(Br)cc1F [AR0042603]
[2]; [5]
  AUC0-10h: 203 (112) ng*h/ml (SD)
  Cmax: 25.1 (15.1) ng/ml (SD)
  Cmin: 10.4 (2.66) ng/ml (SD)
  Tmax: 3.03 (1.97) h (SD)
[2]; [6]
  AUC0-10h: 183 (24.8) ng*h/ml (SD)
  Cmax: 29.5 (8.62) ng/ml (SD)
  Cmin: 10.2 (2.47) ng/ml (SD)
  Tmax: 1.75 (0.5) h (SD)
[2]; [7]
  AUC0-10h: 121 (28.9) ng*h/ml (SD)
  Cmax: 23.4 (8.04) ng/ml (SD)
  Cmin: 6.95 (1.6) ng/ml (SD)
  Tmax: 1.84 (1.16) h (SD)
[2]; [8]
  AUC0-10h: 194 (85.2) ng*h/ml (SD)
  Cmax: 22.7 (16.0) ng/ml (SD)
  Cmin: 12.1 (4.8) ng/ml (SD)
  Tmax: 3.15 (1.99) h (SD)

## Cn1cnc2c(F)c(Nc3ccc(Br)cc3F)c(C(=O)NOCCO)cc21 [binimetinib]
[2]; [5]
  AUC0-10h: 1604 (554) ng*h/ml (SD)
  Cmax: 265 (83.4) ng/ml (SD)
  Cmin: 77.1 (40.3) ng/ml (SD)
  Tmax: 2.26 (2.14) h (SD)
[2]; [6]
  AUC0-10h: 1780 (706) ng*h/ml (SD)
  Cmax: 386 (189) ng/ml (SD)
  Cmin: 85.8 (51.9) ng/ml (SD)
  Tmax: 1.75 (0.5) h (SD)
[2]; [7]
  AUC0-10h: 1402 (666) ng*h/ml (SD)
  Cmax: 320 (136) ng/ml (SD)
  Cmin: 64.0 (28.9) ng/ml (SD)
  Tmax: 1.51 (0.54) h (SD)
[2]; [8]
  AUC0-10h: 2129 (1152) ng*h/ml (SD)
  Cmax: 357 (171) ng/ml (SD)
  Cmin: 103 (58.5) ng/ml (SD)
  Tmax: 2.55 (1.5) h (SD)
[2]; [9]
  Tmax: 0.98 to 6 h
pMEK1/2
  pMEK1/2 (catalytically-inactive) in skin biopsies, post- vs pre-treatment: significant accumulation
[4]
  RP2D: 45 mg B.D
  doses achieving plasma concentrations required to inhibit pERK1/2: ≥ 30 mg B.D
Days 1–21 every 28 days, with crizotinib 250 mg O.D continuously
  MTD (binimetinib dose in the combination): 30 mg B.D
